System: Cynomolgus monkeys (Crab-eating macaques)
Assay: Increase in temperature of the true skin after application to the skin surface (Test No. 2, net effect TE)
Assay type: in vivo
Conditions: Test (ii); ester as penetration agent at 0.5% (w/v) or more in gel-like tonic formulation containing Substance MH-548
Description: For the purpose of confirming whether Substance P or Substance P-related peptide of the formula (II) is actually effective to increase the blood flow in the capillary blood vessels at a local area of the skin, we have conducted some experiments where the hair growth promoting formulation of this invention was applied to a local skin surface of monkies, and an increase in the temperature of the underlying true skin tissue below the local skin surface was measured, which should be considered to be invoked by such increase in the local blood flow at the local skin site owing to the vasodilating activity of Substance P or Substance P-related peptide of the formula (II).
Cynomolgus monkeys (Crab-eating macaques) (female, body weight 3.8-4.2 kg) were fixed each in a device for fixing the monkey. The hair was cut off from an area in the upper arms of each monkey. A probe of a thermometer for measurement of the temperature in a deep place (a thermometer commercially available from Telmo Co., Ltd., Japan) was sent into the hair-removed areas of each upper arm of the monkey, and the temperature in the true skin layer of the left and right upper arms of the monkey was measured before the administration of the active peptide for promoting the hair growth was made. […]
Thus, the following parameters were evaluated. […]

## CCOC(=O)CCCCCCCCC(=O)OCC [di-ethyl sebacate]
  effect of increasing the temperature in the true skin (TE): better effect than isopropyl myristate and di-isopropyl adipate

Source: patent publication EP0221208B1, “Hair growth promoting compositions” (MEIJI SEIKA KAISHA LTD., priority 1985, dated 1987)
